US20260240968A1, “METHODS AND MODIFICATIONS FOR REDUCING INNATE IMMUNE RESPONSES TO RNA” (The Board of Trustees of the Leland Stanford Junior …, priority 2023, published 2026)

Columns and labels:
[1] = tested on: ISG15; test: RT-qPCR of ISG15 mRNA expression (Type I innate immune response via the RIG-1 pathway) in HEK293 cells lipofected with eGFP-mRNA; assay type: cell-based, human; details: HEK293 lipofected by eGFP-mRNA with or without cloaking by DMG-Im
Source text: (§1) Transfection of in vitro transcribed RNA can trigger a potent Type I innate immune response in HEK293 cells (PMID: 30011268). Next, we investigated whether cloaking may modulate such response in HEK293 cells. To do this, HEK293 cells were lipofected by eGFP-mRNA with or without cloaking by DMG-Im. We measured the mRNA expression level of ISG15, an activation marker downstream of Type I innate immune response via the RIG-1 pathway.
as §1, with “DMG-lm.” for “DMG-Im.”

[2] = tested on: HEK293 cells; test: Spontaneous restoration of translation of cloaked GFP-mRNA (green fluorescence) in HEK293 cells; details: normal cells (HEK293)
Source text: (§2) Thus, we investigated whether adducts by N,N-dimethylglycine acylimidazole can spontaneously release within the cells. To explored this, we employed cloaked mRNAs encoding a green fluorescence protein (GFP) (FIG. 6).
We screened these acylimidazole reagents for spontaneous restoration of mRNA translation in HEK293 cells by transfection with d2GFP-mRNA aliquots that were acylated with these acylimidazole reagents at various levels of 2′-modification. We monitored the green fluorescence signal in HEK293 cells over three days.

[3] = tested on: HeLa cells
Source text: as §2

[4] = tested on: SW480 cells; details: cancerous cells (SW480); cloaked mRNA
Source text: as §2

[5] = tested on: HEK293 cells; test: Luminex human 48-plex analysis of cytokines and immune activation markers released from HEK293 cells lipofected with eGFP-mRNA with or without cloaking; assay type: cell-based
Description: As an initial assessment of how cloaking affects the innate immune responses of mRNA, we measured the release of cytokines and immune activation markers from HEK293 cells that were lipofected by eGFP-mRNA with or without cloaking. HEK293 cells were transfected with 2 μg of mRNA with lipofectamine MessengerMax. […] In comparison. […] The translation of eGFP-mRNA was insignificant at this time (6 hours post-transfection), so the release of these immunomodulatory cytokines/chemokines is largely due to cells sensing the mRNA.
We further evaluated the effect of 2′-acylation on long-term immune response with Luminex human 48-plex assays in HEK293 cells that were transfected with modified eGFP-mRNA (FIG. 3 and FIG. 4).
We next investigated whether the chemical structure of acylating reagents may differentially modulate certain innate immune response pathways. […] Because the maximum level of cloaking varied among these reagents, we proceeded to equimolarly cloak at ~50% of unpaired accessible 2′-hydroxyls of eGFP-mRNA with a similar level of modification. We measured the release of cytokines and immune activation markers from HEK293 cells that were lipofected by modified eGFP-mRNA with or without cloaking. HEK293 cells were transfected with 2 μg of mRNA aliquots with lipofectamine MessengerMax. […] Thus, acylating reagents with diverse chemical structures can differentially modulate certain innate immune-responsive pathways.

[6] = long-term immune response, HEK293 transfected with modified eGFP-mRNA

## CN(C)CC(=O)n1ccnc1 [DMG-Im, N,N-dimethylglycine acylimidazole]
[1]
  mRNA expression level of ISG15: almost fully suppressed
[2]
  translation of GFP-mRNA with N,N-dimethylglycine adducts: spontaneously restored
[3]; HeLa cells, d2GFP-mRNA cloaked with DMG-Im
  extension of the translational lifespan of mRNA encoding destabilized green fluorescent protein d2GFP: 31%
[3]; cancerous cells (HeLa), cloaked mRNA
  translation of GFP-mRNA with N,N-dimethylglycine adducts: spontaneously restored
[4]
  translation of GFP-mRNA with N,N-dimethylglycine adducts: spontaneously restored
[5]; FIGS. 3A-3B, cloaking by DMG-Im
  expression of some proinflammatory cytokines and immune activation markers over time: potently modulates
[5]; HEK293 transfected with 2 μg of eGFP-mRNA, lipofectamine MessengerMax, six hours post-transfection
  release of proinflammatory chemokines and cytokines, including VEGF, RANTES/CCL5, PDGFAA, and IL8: potently suppressed
[5]; RNA cloaked with the R group, FIGS. 9 and 10
  expression profiles of immune response mediators including type I interferon, CCL5, IL-8, IL-3, VEGF: distinct expression profiles
[5]; cloaked vs unmodified eGFP-mRNA, six hours post-transfection
  expression of many mRNA-stimulated cytokines: not significantly modulated
[5]; eGFP-mRNA with intermediate cloaking (~50% of unpaired 2′-hydroxyls) vs unmodified, 2 μg, six hours post-transfection
  reduction of the release of proinflammatory cytokines and activation (VEGF, RANTES/CCL5, PDGFAA, IL8): ≤ 90%
[5]; [6]
  release of Granulocyte-macrophage colony-stimulating factor (GMCSF) over time: increasingly suppressed overtime
  release of proinflammatory Chemokine ligand 5 (CCL5) over time: increasingly suppressed overtime
  secretion of Vascular endothelial growth factor (VEGF) over time: increasingly less suppressed over time
